The values that follow come from patent publication US10323022B2, “Pyrrolidinyl urea, pyrrolidinyl thiourea and pyrrolidinyl guanidine compounds as TrkA kinase inhibitors” (Array BioPharma Inc., priority 2011, dated 2019).

Molecules are shown by their SMILES. A value given as a limit tells only on which side of the number the result lay.

Chain of TrkA (P04629 33-796): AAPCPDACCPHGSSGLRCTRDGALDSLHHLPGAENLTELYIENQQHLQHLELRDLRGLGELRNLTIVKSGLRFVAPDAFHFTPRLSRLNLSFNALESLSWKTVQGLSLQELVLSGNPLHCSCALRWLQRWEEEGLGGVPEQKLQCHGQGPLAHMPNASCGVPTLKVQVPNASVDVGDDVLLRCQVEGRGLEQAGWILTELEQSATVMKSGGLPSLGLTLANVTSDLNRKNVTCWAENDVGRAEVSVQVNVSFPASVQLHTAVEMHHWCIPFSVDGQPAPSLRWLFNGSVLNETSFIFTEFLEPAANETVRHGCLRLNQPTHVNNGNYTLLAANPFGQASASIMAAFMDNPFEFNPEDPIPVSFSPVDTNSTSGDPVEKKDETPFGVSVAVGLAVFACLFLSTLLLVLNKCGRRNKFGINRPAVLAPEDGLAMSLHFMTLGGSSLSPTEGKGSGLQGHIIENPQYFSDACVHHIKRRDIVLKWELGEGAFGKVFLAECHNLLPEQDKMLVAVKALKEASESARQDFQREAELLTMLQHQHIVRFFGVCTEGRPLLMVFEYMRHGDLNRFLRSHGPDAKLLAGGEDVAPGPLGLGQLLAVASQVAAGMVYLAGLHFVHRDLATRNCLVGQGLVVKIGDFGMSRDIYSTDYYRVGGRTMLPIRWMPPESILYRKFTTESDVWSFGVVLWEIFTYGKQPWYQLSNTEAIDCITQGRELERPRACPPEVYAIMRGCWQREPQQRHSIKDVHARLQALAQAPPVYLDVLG

The assay concerns the target TrkA (Homo sapiens (Human), UniProt P04629). The assay is described as follows: TrkA Omnia Assay. The format is biochemical. Particulars: averaged IC50; 20 nM enzyme, 500 μM ATP, 10 μM peptide substrate. In short, it runs like this: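 Recombinant TrkA (20 nM) preincubated 10 min at ambient temperature with compound, then Omnia Tyr Peptide #4 (10 μM) and ATP (500 μM) added in 25 mM MOPS pH 7.5, 5 mM MgCl2, 0.005% Triton X-100. Fluorescence (ex 360/em 485 nm) followed continuously for 70 min; IC50 from initial rates by 4- or 5-parameter logistic fit.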
Turning to `COCCN1C[C@@H](NC(=O)Nc2c(C)c(OC[C@H](C)O[Si](C)(C)C(C)(C)C)nn2-c2ccccc2)[C@H](c2cc(F)c(F)c(F)c2)C1` [Example 400, 1-(3-((S)-2-(tert-butyldimethylsilyloxy)propoxy)-4-methyl-1-phenyl-1H-pyrazol-5-yl)-3-((3S,4R)-1-(2-methoxyethyl)-4-(3,4,5-trifluorophenyl)pyrrolidin-3-yl)urea], the concentration for half-maximal inhibition (IC50) – broadly, the midpoint of a concentration-inhibition curve – was in the range of 100 to 1000 nM. For `COCCN1C[C@@H](NC(=O)Nc2c(C)c(OCC(C)(C)O)nn2-c2ccccc2)[C@H](c2cc(F)c(F)c(F)c2)C1` [Example 401, 1-(3-(2-hydroxy-2-methylpropoxy)-4-methyl-1-phenyl-1H-pyrazol-5-yl)-3-((3S,4R)-1-(2-methoxyethyl)-4-(3,4,5-trifluorophenyl)pyrrolidin-3-yl)urea], the IC50 is less than 100 nM. Compound `COCCN1C[C@@H](NC(=O)Nc2c(C)c(OC[C@H](COC)O[Si](C)(C)C(C)(C)C)nn2-c2ccccc2)[C@H](c2ccc(F)c(F)c2)C1` [Example 402, 1-(3-((S)-2-(tert-butyldimethylsilyloxy)-3-methoxypropoxy)-4-methyl-1-phenyl-1H-pyrazol-5-yl)-3-((3S,4R)-4-(3,4-difluorophenyl)-1-(2-methoxyethyl)pyrrolidin-3-yl)urea_] came in with a half-inhibitory concentration (IC50) of 100 to 1000 nM.

`COCCN1C[C@@H](NC(=O)Nc2c(Cl)c(COC)nn2-c2ccccc2)[C@H](c2ccc(F)c(F)c2)C1` [Example 403, 1-(4-chloro-3-(methoxymethyl)-1-phenyl-1H-pyrazol-5-yl)-3-((3S,4R)-4-(3,4-difluorophenyl)-1-(2-methoxyethyl)pyrrolidin-3-yl)urea] returned an IC50 of less than 100 nM. The compound `COCCN1C[C@@H](NC(=O)Nc2c(Br)c(COC)nn2-c2ccccc2)[C@H](c2ccc(F)c(F)c2)C1` [Example 404, 1-(4-bromo-3-(methoxymethyl)-1-phenyl-1H-pyrazol-5-yl)-3-((3S,4R)-4-(3,4-difluorophenyl)-1-(2-methoxyethyl)pyrrolidin-3-yl)urea] showed an IC50 of less than 100 nM. Regarding `COCCN1C[C@@H](NC(=O)Nc2c(Cl)c(COC)nn2-c2ccccc2)[C@H](c2cc(F)cc(F)c2)C1` [Example 405, 1-(4-chloro-3-(methoxymethyl)-1-phenyl-1H-pyrazol-5-yl)-3-((3S,4R)-4-(3,5-difluorophenyl)-1-(2-methoxyethyl)pyrrolidin-3-yl)urea], the IC50 is less than 100 nM. Then `COCCN1C[C@@H](NC(=O)Nc2c(Br)c(COC)nn2-c2ccccc2)[C@H](c2cc(F)cc(F)c2)C1` [Example 406, 1-(4-bromo-3-(methoxymethyl)-1-phenyl-1H-pyrazol-5-yl)-3-((3S,4R)-4-(3,5-difluorophenyl)-1-(2-methoxyethyl)pyrrolidin-3-yl)urea], with less than 100 nM; and `COCCN1C[C@@H](NC(=O)Nc2c(Cl)c(COC)nn2-c2ccccc2)[C@H](c2ccc(F)cc2)C1` [Example 407, 1-(4-chloro-3-(methoxymethyl)-1-phenyl-1H-pyrazol-5-yl)-3-((3S,4R)-4-(4-fluorophenyl)-1-(2-methoxyethyl)pyrrolidin-3-yl)urea], with less than 100 nM; and `COCCN1C[C@@H](NC(=O)Nc2c(Br)c(COC)nn2-c2ccccc2)[C@H](c2ccc(F)cc2)C1` [Example 408, 1-(4-bromo-3-(methoxymethyl)-1-phenyl-1H-pyrazol-5-yl)-3-((3S,4R)-4-(4-fluorophenyl)-1-(2-methoxyethyl)pyrrolidin-3-yl)urea], with less than 100 nM. In turn, `COCCN1C[C@@H](NC(=O)Nc2c(Cl)c(C(F)(F)CO)nn2-c2ccccc2)[C@H](c2ccc(F)c(F)c2)C1` [Example 409, 1-(4-chloro-3-(1,1-difluoro-2-hydroxyethyl)-1-phenyl-1H-pyrazol-5-yl)-3-((3S,4R)-4-(3,4-difluorophenyl)-1-(2-methoxyethyl)pyrrolidin-3-yl)urea] had an IC50 of less than 100 nM. As for `COCCN1C[C@@H](NC(=O)Nc2c(Cl)c(C(F)(F)CO)nn2-c2ccccc2)[C@H](c2cc(F)cc(F)c2)C1` [Example 410, 1-(4-chloro-3-(1,1-difluoro-2-hydroxyethyl)-1-phenyl-1H-pyrazol-5-yl)-3-((3S,4R)-4-(3,5-difluorophenyl)-1-(2-methoxyethyl)pyrrolidin-3-yl)urea], the figure is less than 100 nM. Then `COCCN1C[C@@H](NC(=O)Nc2c(Cl)c(C(F)(F)CO)nn2-c2ccccc2)[C@H](c2ccc(F)cc2)C1` [Example 411, 1-(4-chloro-3-(1,1-difluoro-2-hydroxyethyl)-1-phenyl-1H-pyrazol-5-yl)-3-((3S,4R)-4-(4-fluorophenyl)-1-(2-methoxyethyl)pyrrolidin-3-yl)urea], with less than 100 nM; and `COCCN1C[C@@H](NC(=O)Nc2c(Cl)c(C[C@H](C)O)nn2-c2ccccc2)[C@H](c2ccc(F)c(F)c2)C1` [Example 412, 1-(4-chloro-3-((S)-2-hydroxypropyl)-1-phenyl-1H-pyrazol-5-yl)-3-((3S,4R)-4-(3,4-difluorophenyl)-1-(2-methoxyethyl)pyrrolidin-3-yl)urea], with less than 100 nM. Then `COCCN1C[C@@H](NC(=O)Nc2c(Cl)c(C[C@@H](C)O)nn2-c2ccccc2)[C@H](c2ccc(F)c(F)c2)C1` [Example 413, 1-(4-chloro-3-((R)-2-hydroxypropyl)-1-phenyl-1H-pyrazo1-5-yl)-3-((3S,4R)-4-(3,4-difluorophenyl)-1-(2-methoxyethyl)pyrrolidin-3-yl)urea], with less than 100 nM.

For `COCCN1C[C@@H](NC(=O)Nc2c(Br)c(C[C@@H](C)O)nn2-c2ccccc2)[C@H](c2ccc(F)c(F)c2)C1` [Example 414, 1-(4-bromo-3-((R)-2-hydroxypropyl)-1-phenyl-1H-pyrazol-5-yl)-3-((3S,4R)-4-(3,4-difluorophenyl)-1-(2-methoxyethyl)pyrrolidin-3-yl)urea], the IC50 is less than 100 nM. As for `COCCN1C[C@@H](NC(=O)Nc2c(Cl)c(CC(C)(C)O)nn2-c2ccccc2)[C@H](c2ccc(F)c(F)c2)C1` [Example 415, 1-(4-chloro-3-(2-hydroxy-2-methylpropyl)-1-phenyl-1H-pyrazol-5-yl)-3-((3S,4R)-4-(3,4-difluorophenyl)-1-(2-methoxyethyl)pyrrolidin-3-yl)urea], the figure is less than 100 nM; as for `COCCN1C[C@@H](NC(=O)Nc2c(Cl)c(-c3nc(C)no3)nn2-c2ccccc2)[C@H](c2ccc(F)c(F)c2)C1` [Example 416, 1-(4-chloro-3-(3-methyl-1,2,4-oxadiazol-5-yl)-1-phenyl-1H-pyrazol-5-yl)-3-((3S,4R)-4-(3,4-difluorophenyl)-1-(2-methoxyethyl)pyrrolidin-3-yl)urea], less than 100 nM. As for `COCCN1C[C@@H](NC(=O)Nc2c(Br)c(C(C)(C)C#N)nn2-c2ccccc2)[C@H](c2ccc(F)c(F)c2)C1` [Example 417, 1-(4-bromo-3-(2-cyanopropan-2-yl)-1-phenyl-1H-pyrazol-5-yl)-3-((3S,4R)-4-(3,4-difluorophenyl)-1-(2-methoxyethyl)pyrrolidin-3-yl)urea], the figure is less than 100 nM. The compound `COCCN1C[C@@H](NC(=O)Nc2c(Cl)c(C(C)(C)C#N)nn2-c2ccccc2)[C@H](c2ccc(F)c(F)c2)C1` [Example 418, 1-(4-chloro-3-(2-cyanopropan-2-yl)-1-phenyl-1H-pyrazol-5-yl)-3-((3S,4R)-4-(3,4-difluorophenyl)-1-(2-methoxyethyl)pyrrolidin-3-yl)urea] gave an IC50 of less than 100 nM.

Compound `COCCN1C[C@@H](NC(=O)Nc2c(Br)c(-c3cnn(C)c3)nn2-c2ccccc2)[C@H](c2cc(F)cc(F)c2)C1` [Example 419, 1-(4-bromo-1′-methyl-1-phenyl-1H,1′H-[3,4′-bipyrazol]-5-yl)-3-((3S,4R)-4-(3,5-difluorophenyl)-1-(2-methoxyethyl)pyrrolidin-3-yl)urea] registered an IC50 of less than 100 nM.

With `COCCN1C[C@@H](NC(=O)Nc2c(Br)c(-c3cnn(C)c3)nn2-c2ccccc2)[C@H](c2ccc(F)c(F)c2)C1` [Example 420, 1-(4-bromo-1′-methyl-1-phenyl-1H,1′H-[3,4′-bipyrazol]-5-yl)-3-((3S,4R)-4-(3,4-difluorophenyl)-1-(2-methoxyethyl)pyrrolidin-3-yl)urea], the 50% inhibitory concentration (IC50) was less than 100 nM. Then `COCCN1C[C@@H](NC(=O)Nc2c(Br)c(-c3cnn(C)c3)nn2-c2ccccc2)[C@H](c2ccc(F)cc2)C1` [Example 421], with less than 100 nM; and `COCCN1C[C@@H](NC(=O)Nc2c(Cl)c(-c3cnn(C)c3)nn2-c2ccccc2)[C@H](c2cc(F)cc(F)c2)C1` [Example 422, 1-(4-chloro-1′-methyl-1-phenyl-1H,1′H-[3,4′-bipyrazol]-5-yl)-3-((3S,4R)-4-(3,5-difluorophenyl)-1-(2-methoxyethyl)pyrrolidin-3-yl)urea], with less than 100 nM; and `COCCN1C[C@@H](NC(=O)Nc2c(Cl)c(-c3cnn(C)c3)nn2-c2ccccc2)[C@H](c2ccc(F)c(F)c2)C1` [Example 423, 1-(4-chloro-1′-methyl-1-phenyl-1H,1′H-[3,4′-bipyrazol]-5-yl)-3-((3S,4R)-4-(3,4-difluorophenyl)-1-(2-methoxyethyl)pyrrolidin-3-yl)urea], with less than 100 nM.

Turning to `COCCN1C[C@@H](NC(=O)Nc2c(Cl)c(-c3cnn(C)c3)nn2-c2ccccc2)[C@H](c2ccc(F)cc2)C1` [Example 424, 1-(4-chloro-1′-methyl-1-phenyl-1H,1′H-[3,4′-bipyrazol]-5-yl)-3-((3S,4R)-4-(4-fluorophenyl)-1-(2-methoxyethyl)pyrrolidin-3-yl)urea], the half-inhibitory concentration (IC50) is less than 100 nM.

In the case of `COCCN1C[C@@H](NC(=O)Nc2c(Cl)c(-c3cnn(C)c3)nn2-c2ccccc2)[C@H](c2ccccc2)C1` [Example 425, 1-(4-chloro-1′-methyl-1-phenyl-1H,1′H-[3,4′-bipyrazol]-5-yl)-3-((3S,4R)-4-phenyl-1-(2-methoxyethyl)pyrrolidin-3-yl)urea], the 50% inhibitory concentration (IC50) is less than 100 nM.
